Assay: Cytotoxicity against C57BL/6 mouse Pre-Osteoblast cells assessed as cell death upto 5 uM incubated for 4 days by CCK-8 assay
Format: toxicity, cell-based
Details: 96 h, time 4 day

Structure (SMILES)	Activity
CC[C@H](C)[C@H](NC(=O)[C@H](CCC(=O)O)NC(=O)[C@H](CO)NC(=O)[C@@H](NC(=O)[C@H](CO)NC(C)=O)C(C)C)C(=O)N[C@@H](CCC(N)=O)C(=O)N[C@@H](CC(C)C)C(=O)N[C@@H](CCSC)C(=O)N[C@@H](Cc1cnc[nH]1)C(=O)N[C@@H](CC(N)=O)C(=O)N[C@@H](CC(C)C)C(=O)NCC(=O)N[C@@H](CCCCN)C(=O)N[C@@H](Cc1cnc[nH]1)C(=O)N[C@@H](CC(C)C)C(=O)N[C@@H](CC(N)=O)C(=O)N[C@@H](CO)C(=O)N[C@@H](CCSC)C(=O)N[C@@H](CCC(=O)O)C(=O)N[C@@H](CCCNC(=N)N[C@@H]1O[C@H](CO)[C@@H](O[C@H]2O[C@H](CO)[C@@H](O)[C@H](O)[C@H]2O)[C@H](O)[C@H]1O)C(=O)N[C@H](C(=O)N[C@@H](CCC(=O)O)C(=O)N[C@@H](Cc1c[nH]c2ccccc12)C(=O)N[C@@H](CC(C)C)C(=O)N[C@@H](CCCNC(=N)N)C(=O)N[C@@H](CCCCN)C(=O)N[C@@H](CCCCN)C(=O)N[C@@H](CC(C)C)C(=O)N[C@@H](CCC(N)=O)C(=O)N[C@@H](CC(=O)O)C(=O)N[C@H](C(=O)N[C@@H](Cc1cnc[nH]1)C(=O)N[C@@H](CC(N)=O)C(=O)N[C@@H](Cc1ccccc1)C(N)=O)C(C)C)C(C)C	Non-Toxic
CC[C@H](C)[C@H](NC(=O)[C@H](CCC(=O)O)NC(=O)[C@H](CO)NC(=O)[C@@H](NC(=O)[C@H](CO)NC(C)=O)C(C)C)C(=O)N[C@@H](CCC(N)=O)C(=O)N[C@@H](CC(C)C)C(=O)N[C@@H](CCSC)C(=O)N[C@@H](Cc1cnc[nH]1)C(=O)N[C@@H](CC(N)=O)C(=O)N[C@@H](CC(C)C)C(=O)NCC(=O)N[C@@H](CCCCN)C(=O)N[C@@H](Cc1cnc[nH]1)C(=O)N[C@@H](CC(C)C)C(=O)N[C@@H](CC(N)=O)C(=O)N[C@@H](CO)C(=O)N[C@@H](CCSC)C(=O)N[C@@H](CCC(=O)O)C(=O)N[C@@H](CCCNC(=N)N[C@@H]1O[C@@H](C)[C@H](O)[C@@H](O)[C@H]1O)C(=O)N[C@H](C(=O)N[C@@H](CCC(=O)O)C(=O)N[C@@H](Cc1c[nH]c2ccccc12)C(=O)N[C@@H](CC(C)C)C(=O)N[C@@H](CCCNC(=N)N)C(=O)N[C@@H](CCCCN)C(=O)N[C@@H](CCCCN)C(=O)N[C@@H](CC(C)C)C(=O)N[C@@H](CCC(N)=O)C(=O)N[C@@H](CC(=O)O)C(=O)N[C@H](C(=O)N[C@@H](Cc1cnc[nH]1)C(=O)N[C@@H](CC(N)=O)C(=O)N[C@@H](Cc1ccccc1)C(N)=O)C(C)C)C(C)C	Non-Toxic
CC[C@H](C)[C@H](NC(=O)[C@H](CCC(=O)O)NC(=O)[C@H](CO)NC(=O)[C@@H](NC(=O)[C@H](CO)NC(C)=O)C(C)C)C(=O)N[C@@H](CCC(N)=O)C(=O)N[C@@H](CC(C)C)C(=O)N[C@@H](CCSC)C(=O)N[C@@H](Cc1cnc[nH]1)C(=O)N[C@@H](CC(N)=O)C(=O)N[C@@H](CC(C)C)C(=O)NCC(=O)N[C@@H](CCCCN)C(=O)N[C@@H](Cc1cnc[nH]1)C(=O)N[C@@H](CC(C)C)C(=O)N[C@@H](CC(N)=O)C(=O)N[C@@H](CO)C(=O)N[C@@H](CCSC)C(=O)N[C@@H](CCC(=O)O)C(=O)N[C@@H](CCCNC(=N)N[C@@H]1O[C@H](CO)[C@@H](O)[C@H]1O)C(=O)N[C@H](C(=O)N[C@@H](CCC(=O)O)C(=O)N[C@@H](Cc1c[nH]c2ccccc12)C(=O)N[C@@H](CC(C)C)C(=O)N[C@@H](CCCNC(=N)N[C@@H]1O[C@H](CO)[C@@H](O)[C@H]1O)C(=O)N[C@@H](CCCCN)C(=O)N[C@@H](CCCCN)C(=O)N[C@@H](CC(C)C)C(=O)N[C@@H](CCC(N)=O)C(=O)N[C@@H](CC(=O)O)C(=O)N[C@H](C(=O)N[C@@H](Cc1cnc[nH]1)C(=O)N[C@@H](CC(N)=O)C(=O)N[C@@H](Cc1ccccc1)C(N)=O)C(C)C)C(C)C	Non-Toxic
CC[C@H](C)[C@H](NC(=O)[C@H](CCC(=O)O)NC(=O)[C@H](CO)NC(=O)[C@@H](NC(=O)[C@H](CO)NC(C)=O)C(C)C)C(=O)N[C@@H](CCC(N)=O)C(=O)N[C@@H](CC(C)C)C(=O)N[C@@H](CCSC)C(=O)N[C@@H](Cc1cnc[nH]1)C(=O)N[C@@H](CC(N)=O)C(=O)N[C@@H](CC(C)C)C(=O)NCC(=O)N[C@@H](CCCCN)C(=O)N[C@@H](Cc1cnc[nH]1)C(=O)N[C@@H](CC(C)C)C(=O)N[C@@H](CC(N)=O)C(=O)N[C@@H](CO)C(=O)N[C@@H](CCSC)C(=O)N[C@@H](CCC(=O)O)C(=O)N[C@@H](CCCNC(=N)N[C@@H]1O[C@H](CO)[C@@H](O)[C@H]1O)C(=O)N[C@H](C(=O)N[C@@H](CCC(=O)O)C(=O)N[C@@H](Cc1c[nH]c2ccccc12)C(=O)N[C@@H](CC(C)C)C(=O)N[C@@H](CCCNC(=N)N)C(=O)N[C@@H](CCCCN)C(=O)N[C@@H](CCCCN)C(=O)N[C@@H](CC(C)C)C(=O)N[C@@H](CCC(N)=O)C(=O)N[C@@H](CC(=O)O)C(=O)N[C@H](C(=O)N[C@@H](Cc1cnc[nH]1)C(=O)N[C@@H](CC(N)=O)C(=O)N[C@@H](Cc1ccccc1)C(N)=O)C(C)C)C(C)C	Non-Toxic
CC[C@H](C)[C@H](NC(=O)[C@H](CCC(=O)O)NC(=O)[C@H](CO)NC(=O)[C@@H](NC(=O)[C@H](CO)NC(C)=O)C(C)C)C(=O)N[C@@H](CCC(N)=O)C(=O)N[C@@H](CC(C)C)C(=O)N[C@@H](CCSC)C(=O)N[C@@H](Cc1cnc[nH]1)C(=O)N[C@@H](CC(N)=O)C(=O)N[C@@H](CC(C)C)C(=O)NCC(=O)N[C@@H](CCCCN)C(=O)N[C@@H](Cc1cnc[nH]1)C(=O)N[C@@H](CC(C)C)C(=O)N[C@@H](CC(N)=O)C(=O)N[C@@H](CO)C(=O)N[C@@H](CCSC)C(=O)N[C@@H](CCC(=O)O)C(=O)N[C@@H](CCCNC(=N)N)C(=O)N[C@H](C(=O)N[C@@H](CCC(=O)O)C(=O)N[C@@H](Cc1c[nH]c2ccccc12)C(=O)N[C@@H](CC(C)C)C(=O)N[C@@H](CCCNC(=N)N[C@@H]1O[C@H](CO)[C@H](O)[C@H](O)[C@H]1O)C(=O)N[C@@H](CCCCN)C(=O)N[C@@H](CCCCN)C(=O)N[C@@H](CC(C)C)C(=O)N[C@@H](CCC(N)=O)C(=O)N[C@@H](CC(=O)O)C(=O)N[C@H](C(=O)N[C@@H](Cc1cnc[nH]1)C(=O)N[C@@H](CC(N)=O)C(=O)N[C@@H](Cc1ccccc1)C(N)=O)C(C)C)C(C)C	Non-Toxic
CC[C@H](C)[C@H](NC(=O)[C@H](CCC(=O)O)NC(=O)[C@H](CO)NC(=O)[C@@H](NC(=O)[C@H](CO)NC(C)=O)C(C)C)C(=O)N[C@@H](CCC(N)=O)C(=O)N[C@@H](CC(C)C)C(=O)N[C@@H](CCSC)C(=O)N[C@@H](Cc1cnc[nH]1)C(=O)N[C@@H](CC(N)=O)C(=O)N[C@@H](CC(C)C)C(=O)NCC(=O)N[C@@H](CCCCN)C(=O)N[C@@H](Cc1cnc[nH]1)C(=O)N[C@@H](CC(C)C)C(=O)N[C@@H](CC(N)=O)C(=O)N[C@@H](CO)C(=O)N[C@@H](CCSC)C(=O)N[C@@H](CCC(=O)O)C(=O)N[C@@H](CCCNC(=N)N[C@@H]1O[C@H](CO)[C@@H](O[C@H]2O[C@H](CO)[C@@H](O)[C@H](O)[C@H]2O)[C@H](O)[C@H]1O)C(=O)N[C@H](C(=O)N[C@@H](CCC(=O)O)C(=O)N[C@@H](Cc1c[nH]c2ccccc12)C(=O)N[C@@H](CC(C)C)C(=O)N[C@@H](CCCNC(=N)N[C@@H]1O[C@H](CO)[C@@H](O[C@H]2O[C@H](CO)[C@@H](O)[C@H](O)[C@H]2O)[C@H](O)[C@H]1O)C(=O)N[C@@H](CCCCN)C(=O)N[C@@H](CCCCN)C(=O)N[C@@H](CC(C)C)C(=O)N[C@@H](CCC(N)=O)C(=O)N[C@@H](CC(=O)O)C(=O)N[C@H](C(=O)N[C@@H](Cc1cnc[nH]1)C(=O)N[C@@H](CC(N)=O)C(=O)N[C@@H](Cc1ccccc1)C(N)=O)C(C)C)C(C)C	Non-Toxic

Source: ChEMBL document CHEMBL5537170, “Design, Synthesis, and Anti-Osteoporotic Characterization of Arginine N-Glycosylated Teriparatide Analogs via the Silver-catalyzed Solid-Phase Glycosylation Strategy” (J Med Chem, 2024)
